The subject of data set [1] is LPS-stimulated RAW264.7 cells. Nature of the data set: IL-12 production in LPS-stimulated RAW264.7 cells (IL-12 ELISA). The format is cell-based, murine. The protocol:
Accordingly, RAW264.7 cells are cultured with 100 ng/mL of LPS in presence or absence of the compound(s) for 21 h in a humidified atmosphere of 95% air-5% carbon dioxide at 37° C. IL-12 concentration in the culture medium is measured using the IL-12 ELISA according to the manufacturer (BD Biosciences) recommendations. […] Accordingly, an in vitro IL-12 production assay was used for screening potential inhibitors of osteoclastogenesis.
(In an ELISA, binding on a coated surface is turned into a signal by an enzyme label.)

Data set [2] concerns ovariectomized (OVX) rats. Put plainly: Ovariectomized-rat model of osteoporosis. The format is in vivo, Sprague Dawley rats. The source says: Although in comparison to humans, the skeletal mass of rats remains stable for a protracted period during their lifespan, rats can be ovariectomized to make them sex-hormone deficient, and to stimulate the accelerated loss of bone that occurs in women following menopause. Ovariectomy induced bone loss in the rat and postmenopausal bone loss share many similar characteristics. These include: increased rate of bone turnover with resorption exceeding formation; an initial rapid phase of bone loss followed by a much slower phase; greater loss of cancellous than cortical bone; decreased intestinal absorption of calcium; some protection against bone loss by obesity; and similar skeletal response to therapy with estrogen, tamoxifen, bisphosphonates, parathyroid hormone, calcitonin and exercise. These wide-ranging similarities are strong evidence that the ovariectomized rat bone loss model is suitable for studying problems that are relevant to postmenopausal bone loss.
Sprague Dawley rats (250 g) were ovariectomized (OVX) at day 0. Rats were treated by oral gavage with Compound I (10 mg/kg) from day 14 to day 68. Evaluation of different parameters (body weight, calcium loss, osteoclast markers (RANKL and TRAP mRNA expression), collagen content and histology was performed at day 68.

A further data set relates to RAW264.7 cells. The settings on record: cited from earlier work.
The mark [3] stands for this setting: compound concentration 0.020 mM.

Consider `CCCCCCCC(=O)c1ccc(OC(CCCCCC)C(=O)[O-])cc1.[Na+]` (racemic) [Compound IV, Sodium (RS)-2-[4-Octanoylphenoxy]octanoate], for which the melting point fell in the range of 165 to 170 °C. The compound also gave an IL-12 in data set [1] (setting [3]) of 12.13 pg/mL.

As to `CCCCCCCCC(Oc1ccc(C(=O)CCCCC)cc1)C(=O)[O-].[Na+]` (racemic) [Compound VI, Sodium (RS)-2-[4-Hexanoylphenoxy]decanoate], the melting point fell in the range of 275 to 280 °C. This compound gave an IL-12 in data set [1] (setting [3]) of 53.5 pg/mL.

Compound `CCCCCCCCC(Cc1ccc(C(=O)CCCCCCC)cc1)C(=O)[O-].[Na+]` (racemic) [Compound VII, Sodium (RS)-2-[4-Octanoylbenzyl]decanoate] gave an IL-12 in data set [1] (compound concentration 0.012 mM) of 8 pg/mL.

On to `CCCCCCCC(=O)c1cccc2c1CC(C(=O)[O-])C2.[Na+]` (racemic) [Compound III, Sodium (RS)-4-Octanoylindane-2-carboxylate], for which the IL-12 in data set [1] (compound concentration 0.1 mM) is 24.95 pg/mL.

Compound `CCCCCCCCC(Oc1ccc(C(=O)CCC)cc1)C(=O)[O-].[Na+]` (racemic) [Compound V, Sodium (RS)-2-[4-Butyrylphenoxy]decanoate] showed a melting point of 262 to 278 °C. In addition, in data set [1] (compound concentration 0.040 mM), the IL-12 is recorded as 73.32 pg/mL.

Compound `CCCCCCCCC(Oc1ccc(C(=O)CCCCCCC)cc1)C(=O)[O-].[Na+]` (racemic) [Compound I, Sodium (RS)-2-[4-Octanoylphenoxy]decanoate] returned an IL-12 in data set [1] (compound concentration 0.0075 mM) of 112 pg/mL. In data set [2] (10 mg/kg oral gavage day 14 to day 68, FIG. 1), the “body weight / ovariectomized-induced obesity” value is “reduced ovariectomized-induced obesity”. Besides, in data set [2] (10 mg/kg oral gavage, day 28 to day 56, FIG. 2), the “calcium loss in urine” value is on record as “reduced significantly”. Moreover, the “acid phosphatase activity in serum” value in data set [2] (10 mg/kg oral gavage, day 28 to day 56, FIG. 3) is given as “reduced”. Moreover, in data set [2] (10 mg/kg oral gavage, day 68, FIG. 4), the “ratio of mRNA expression of RANKL/OPG in rat tibia” value was “decreased”. Moreover, the “collagen content in the metaphyse of the femur” value in data set [2] (10 mg/kg oral gavage, day 68, FIG. 5) is recorded as “increased”. Also, the “bone loss in the metaphysis portion of the femur (histology)” value in data set [2] (10 mg/kg oral gavage, day 68, FIGS. 6 and 7) is listed as “reduced bone loss”.

For the compound `CCCCCCCCCC(=O)O` [capric acid], the IL-12 production result with RAW264.7 cells (LPS-stimulated RAW264.7 cells) is reported as “increases”. For the same compound, the “LPS-upregulated iNOS mRNA levels and nitric oxide (NO) production” value with RAW264.7 cells (LPS) is given as “inhibited”. Also, the “phosphatase (TRAP)-positive cells (osteoclast differentiation marker)” value with RAW264.7 cells (RAW264.7 cells) is on record as “reduction”. Besides, in the data set on RAW264.7 cells, the “monocyte chemoattractant protein-1 (MCP-1) mRNA expression” value is on record as “inhibited”.

One may read the melting point as the temperature, or range, at which the solid turns liquid.

The values are drawn from patent publication US10925846B2, “Phenylketone carboxylate compounds and pharmaceutical compositions for the prevention and treatment of osteoporosis” (Liminal BioSciences Limited, priority 2014, dated 2021).
